Measured values published in patent publication US9561231B2 (AbbVie Inc., priority 2012, dated 2017).
Read-outs that look alike come from different tables or passages of the source.

Columns and labels:
[1] = target: T1, first (BD1: amino acids K57-E168) bromodomain of BRD4 (Homo sapiens, UniProt O60885); experiment: TR-FRET bromodomain binding assay, BRD4 BD1; details: Ki calculated from IC50, probe Kd and probe concentration, read-out: TR-FRET Binding Ki: BRD4 (BDI_K57-E168)
T1 construct: His-tagged first (BD1: amino acids K57-E168)
Experimental: (§1) A time-resolved fluorescence resonance energy transfer (TR-FRET) assay was used to determine the affinities of compounds of the Examples listed in Table 1 for each bromodomain of BRD4. His-tagged first (BD1: amino acids K57-E168) and second (BD2: amino acids E352-E168) bromodomains of BRD4 were expressed and purified. An Alexa647-labeled BET-inhibitor was used as the fluorescent probe in the assay.
(§2) Compound dilution series were prepared in DMSO via an approximately 3-fold serial dilution from one of the following:
(§3) or 5-fold serial dilution from one of the following:
(§4) Assay method A: 2.5 mM-800 nM
(§5) For Assay methods A, C, D, and F: Compounds were then diluted 6:100 in assay buffer (20 mM Sodium Phosphate, pH 6.0, 50 mM NaCl, 1 mM Ethylenediaminetetraacetic acid, 0.01% Triton X-100, 1 mM DL-Dithiothreitol) to yield 3× working solutions. […] of this solution were added to the assay plate to reach a final volume of 18 μL.
(§6) TR-FRET data were normalized to the means of 24 no-compound controls (“high”) and 8 controls containing 1 μM un-labeled probe (“low”). Percent inhibition was plotted as a function of compound concentration and the data were fit with the 4 parameter logistic equation to obtain IC50s. Inhibition constants (Ki) were calculated from the IC50s, probe Kd and probe concentration. Typical Z′ values were between 0.65 and 0.75.

[2] = target: T2, second (BD2: amino acids E352-E168) bromodomain of BRD4 (Homo sapiens, UniProt O60885); experiment: TR-FRET bromodomain binding assay, BRD4 BD2; details: Ki calculated from IC50, probe Kd and probe concentration, read-out: TR-FRET Binding Ki: BRD4 (BDII_E352-M457)
T2 construct: protocol
Experimental: as §1, §2, §3, §4, §5, §6

[3] = TR-FRET assay protocol (A-G, compound concentration range)
[4] = TR-FRET assay protocol (D, E or G) per compound

Ki [1, 3] [nM]	Ki [2, 3] [nM]	Ki [1, 4] [nM]	Ki [2, 4] [nM]	Structure (SMILES)
2710	5110			COc1cc(=O)n(C)nc1-c1ccccc1OCC1CCNCC1 [Example 44, 5-methoxy-2-methyl-6-[2-(piperidin-4-ylmethoxy)phenyl]pyridazin-3(2H)-one]
6390	410			Cn1nc(-c2ccccc2Oc2ccccc2)c(-c2ccc3scnc3c2)cc1=O [Example 131, 5-(1,3-benzothiazol-5-yl)-2-methyl-6-(2-phenoxyphenyl)pyridazin-3(2H)-one]
> 11500	> 14300			Cn1nc(-c2ccccc2-c2cccc(C#N)c2)ccc1=O [Example 53, 2′-(1-methyl-6-oxo-1,6-dihydropyridazin-3-yl)biphenyl-3-carbonitrile]
680	1110			CCO/C=C/c1cc(=O)n(C)cc1-c1cc(S(C)(=O)=O)ccc1NCC1CC1 [Example 327, 5-{2-[(cyclopropylmethyl)amino]-5-(methylsulfonyl)phenyl}-4-[(E)-2-ethoxyethenyl]-1-methylpyridin-2(1H)-one]
5320	12200			COc1cc(=O)n(C)nc1-c1ccccc1Oc1ccc(C#N)cc1 [Example 32, 4-[2-(4-methoxy-1-methyl-6-oxo-1,6-dihydropyridazin-3-yl)phenoxy]benzonitrile]
3200	5470			Cn1nc(-c2ccccc2Oc2ccccc2)c(-c2cncc(NC3CCCC3)c2)cc1=O [Example 143, 5-[5-(cyclopentylamino)pyridin-3-yl]-2-methyl-6-(2-phenoxyphenyl)pyridazin-3(2H)-one]
164	551			CCS(=O)(=O)Nc1ccc(Oc2ccc(F)cc2F)c(-c2cn(C)c(=O)cc2-c2ccccc2O)c1 [Example 331, N-{4-(2,4-difluorophenoxy)-3-[4-(2-hydroxyphenyl)-1-methyl-6-oxo-1,6-dihydropyridin-3-yl]phenyl}ethanesulfonamide]
1760	2580			CCOc1ccc(-c2cc(=O)n(C)nc2-c2ccccc2Oc2ccccc2)cc1F [Example 107, 5-(4-ethoxy-3-fluorophenyl)-2-methyl-6-(2-phenoxyphenyl)pyridazin-3(2H)-one]
1390	752			Cc1cccc(OCC2CC2)c1-c1ccc(=O)n(C)c1 [Example 356, 5-[2-(cyclopropylmethoxy)-6-methylphenyl]-1-methylpyridin-2(1H)-one]
13100	10200			Cn1nc(-c2cc(C#N)ccc2Oc2ccccc2)ccc1=O [Example 13, 3-(1-methyl-6-oxo-1,6-dihydropyridazin-3-yl)-4-phenoxybenzonitrile]
> 13000	13100			Cn1nc(-c2ccccc2Oc2ccccc2)c(-c2cccc(S(=O)(=O)N3CCCC3)c2)cc1=O [Example 156, 2-methyl-6-(2-phenoxyphenyl)-5-[3-(pyrrolidin-1-ylsulfonyl)phenyl]pyridazin-3(2H)-one]
		317	276	CCS(=O)(=O)c1ccc(Oc2ccc(F)cc2F)c(-c2cn(C)c(=O)cc2Cl)c1 [Example 382, 4-chloro-5-[2-(2,4-difluorophenoxy)-5-(ethylsulfonyl)phenyl]-1-methylpyridin-2(1H)-one]
520	264			CC(C)CCn1cc(-c2cc(=O)n(C)nc2-c2ccccc2Oc2ccccc2)cn1 [Example 129, 2-methyl-5-[1-(3-methylbutyl)-1H-pyrazol-4-yl]-6-(2-phenoxyphenyl)pyridazin-3(2H)-one]
127	700			CCS(=O)(=O)c1ccc(O[C@H]2CC[C@@](C)(OC)CC2)c(-c2ccc(=O)n(C)c2)c1 [Example 360, 5-{5-(ethylsulfonyl)-2-[(cis-4-methoxy-4-methylcyclohexyl)oxy]phenyl}-1-methylpyridin-2(1H)-one]
1010	205			CCS(=O)(=O)Nc1ccc(Oc2ccc(F)cc2F)c(-c2cn(C)c(=O)cc2-c2cscc2C=O)c1 [Example 332, N-{4-(2,4-difluorophenoxy)-3-[4-(4-formylthiophen-3-yl)-1-methyl-6-oxo-1,6-dihydropyridin-3-yl]phenyl}ethanesulfonamide]
572	593			Cn1nc(-c2ccccc2Oc2ccccc2)c(-c2cnn(CCN3CCOCC3)c2)cc1=O [Example 172, 2-methyl-5-{1-[2-(morpholin-4-yl)ethyl]-1H-pyrazol-4-yl}-6-(2-phenoxyphenyl)pyridazin-3(2H)-one]

Ki [1, 3] [nM]	Ki [2, 3] [nM]	Ki [1, 4] [nM]	Ki [2, 4] [nM]	Structure (SMILES)
402	154			Cn1nc(-c2ccccc2Oc2ccccc2)c(-c2ccc(CC#N)cc2)cc1=O [Example 94, {4-[1-methyl-6-oxo-3-(2-phenoxyphenyl)-1,6-dihydropyridazin-4-yl]phenyl}acetonitrile]
1990	366			CN(C)CCCNC(=O)c1cccc(-c2cc(=O)n(C)nc2-c2ccccc2Oc2ccccc2)c1 [Example 163, N-[3-(dimethylamino)propyl]-3-[1-methyl-6-oxo-3-(2-phenoxyphenyl)-1,6-dihydropyridazin-4-yl]benzamide]
832	324			Cn1nc(-c2ccccc2Oc2ccccc2)c(-c2ccc(C(=O)NC3CCCCC3)cc2)cc1=O [Example 185, N-cyclohexyl-4-[1-methyl-6-oxo-3-(2-phenoxyphenyl)-1,6-dihydropyridazin-4-yl]benzamide]
599	562			Cn1nc(-c2ccccc2Oc2ccccc2)c(-c2ccc(C(=O)NC3CCCC3)cc2)cc1=O [Example 169, N-cyclopentyl-4-[1-methyl-6-oxo-3-(2-phenoxyphenyl)-1,6-dihydropyridazin-4-yl]benzamide]
642	229			CCS(=O)(=O)c1ccc(Oc2ccccc2C#CCO)c(-c2cn(C)c(=O)cc2Cl)c1 [Example 314, 4-chloro-5-{5-(ethylsulfonyl)-2-[2-(3-hydroxyprop-1-yn-1-yl)phenoxy]phenyl}-1-methylpyridin-2(1H)-one]
407	317			Cn1nc(-c2ccccc2Oc2ccccc2)c(-c2cnn(Cc3ccccc3)c2)cc1=O [Example 113, 5-(1-benzyl-1H-pyrazol-4-yl)-2-methyl-6-(2-phenoxyphenyl)pyridazin-3(2H)-one]
9480	20100			COc1cc(=O)n(C)nc1-c1ccccc1OCc1ccccn1 [Example 40, 5-methoxy-2-methyl-6-[2-(pyridin-2-ylmethoxy)phenyl]pyridazin-3(2H)-one]
600	1170			CCS(=O)(=O)c1ccc(OCC2CC2)c(-c2cc(NC(C)=O)c(=O)n(C)c2)c1 [Example 361, N-{5-[2-(cyclopropylmethoxy)-5-(ethylsulfonyl)phenyl]-1-methyl-2-oxo-1,2-dihydropyridin-3-yl}acetamide]
2950	2490			Cn1nc(-c2ccccc2Oc2ccccc2)c(-c2cccc(C(=O)N3CCOCC3)c2)cc1=O [Example 175, 2-methyl-5-[3-(morpholin-4-ylcarbonyl)phenyl]-6-(2-phenoxyphenyl)pyridazin-3(2H)-one]
4950	2250			Cn1nc(-c2ccccc2Oc2ccccc2)c(-c2ccc(CNc3ccccc3)cc2)cc1=O [Example 187, 2-methyl-6-(2-phenoxyphenyl)-5-{4-[(phenylamino)methyl]phenyl}pyridazin-3(2H)-one]
9440	1080			COC(=O)C1CCN(c2cc(=O)n(C)nc2-c2ccccc2Oc2ccccc2)C1 (centres unmarked) [Example 48, methyl 1-[1-methyl-6-oxo-3-(2-phenoxyphenyl)-1,6-dihydropyridazin-4-yl]pyrrolidine-3-carboxylate]
20.4	99.7			Cn1cc(-c2cc(NS(C)(=O)=O)ccc2Oc2ccc(F)cc2F)cc(Cl)c1=O [Example 282, N-[3-(5-chloro-1-methyl-6-oxo-1,6-dihydropyridin-3-yl)-4-(2,4-difluorophenoxy)phenyl]methanesulfonamide]
1120	2960			CC(=O)Nc1cncc(-c2cc(=O)n(C)nc2-c2ccccc2Oc2ccccc2)c1 [Example 121, N-{5-[1-methyl-6-oxo-3-(2-phenoxyphenyl)-1,6-dihydropyridazin-4-yl]pyridin-3-yl}acetamide]
1490	619			CCOc1ccc(-c2cc(=O)n(C)nc2-c2ccccc2Oc2ccccc2)cc1 [Example 117, 5-(4-ethoxyphenyl)-2-methyl-6-(2-phenoxyphenyl)pyridazin-3(2H)-one]
1070	993			Cn1nc(-c2ccccc2Oc2ccccc2)c(-c2ccc(C(=O)NC(C)(C)C)cc2)cc1=O [Example 168, N-tert-butyl-4-[1-methyl-6-oxo-3-(2-phenoxyphenyl)-1,6-dihydropyridazin-4-yl]benzamide]
